According to US20060148774A1, “Hypoglycemic agent” (Riken, priority 2001, published 2006):

What was measured:
c57BL db/db male mice [1] = assay: Change in blood sugar level in Type-2 diabetes model mice fed 5-campesten-3-one in the feed; type: in vivo; conditions: for blood sugar level relative to control group (second group): 0.1% in the feed
c57BL db/db male mice [2] = assay: Oral glucose tolerance test (OGTT); type: in vivo; conditions: db/db mice 19-week old; for OGTT blood sugar level: glucose 2 g/kg oral
Protocol: The animals were allowed to water ad libitum.
For oral glucose tolerance test, the animals, starved for 16 hours from the night before of the end of the feeding (19-week old), were orally administered with glucose (2 g/kg), and the bloods were collected from orbital venous plexus at time 0 and after 60 and 120 minutes by using a capillary glass to measure blood sugar levels.

c57BL db/db male mice [3] = assay: Urinary sugar by urinary test paper; type: in vivo; conditions: for urinary sugar, Positive ratio: + or higher positive
Body weight = type: in vivo; conditions: db/db mice, 0.3% in the feed, 19-week old
c57BL db/db male mice [4] = conditions: 19-week old
Protocol: (§1) 6-Week old c57BL db/db male mice, as being a Type-2 diabetes model animal having homozygote diabetes pathogenic gene (db), were divided in three groups each consisting of 10 animals. A group of healthy c57BL db/+m male mice (10 animals) having heterozygote db gene was used as a control group. The animals were housed in plastic cages for mice at five animals per cage. The animals were fed under feeding conditions at a temperature of 24±1° C. and a relative humidity of 55±5%, where light and darkness were controlled to change every 12 hours, and each cage and bedding materials were exchanged twice a week. The animals were allowed to water ad libitum.
(§2) Feed CMF for mouse (Oriental Yeast Co.) was used as a basic feed, and 0.1% or 0.3% of 5-campesten-3-one was mixed to the feed to prepare an experimental feed. The resulting feeds were kept at 4° C. before the start of feeding.
(§3) The animals were autopsied, and the brain, lungs, heart, liver, spleen, pancreas, kidneys, adrenals, and testis were macroscopically examined and weighed.

c57BL db/db male mice [5] = conditions: mouse, in vivo
Protocol: as §1, §2, §3

[6] = 0.3% in the feed, 7- to 17-week old
[7] = 0.1% in the feed, week 7 (period 0 week)
[8] = 0.1% in the feed, week 9 (period 2 weeks)
[9] = 0.1% in the feed, week 11 (period 4 weeks)
[10] = 0.1% in the feed, week 13 (period 6 weeks)
[11] = 0.1% in the feed, week 15 (period 8 weeks)
[12] = 0.1% in the feed, week 17 (period 10 weeks)
[13] = 0.3% in the feed, week 7 (period 0 week)
[14] = 0.3% in the feed, week 9 (period 2 weeks)
[15] = 0.3% in the feed, week 11 (period 4 weeks)
[16] = 0.3% in the feed, week 13 (period 6 weeks)
[17] = 0.3% in the feed, week 15 (period 8 weeks)
[18] = 0.3% in the feed, week 17 (period 10 weeks)

Structure (SMILES): CC(C)[C@H](C)CC[C@@H](C)[C@H]1CC[C@H]2[C@@H]3CC=C4CC(=O)CC[C@]4(C)[C@H]3CC[C@]12C [5-campesten-3-one]
- blood sugar level relative to control group (second group) (c57BL db/db male mice [1]; 9-week old): increased
- blood sugar level relative to control group (second group) (c57BL db/db male mice [1]; 11-week old): decreased
- blood sugar level relative to control group (second group) (c57BL db/db male mice [1]; 17-week old): lower level
- change with time in blood sugar level (c57BL db/db male mice [1]; [6]): almost constant level without a significant increase
- blood sugar level, initial value (c57BL db/db male mice [1]; 0.3% in the feed, 7-week old): 270 mg/dL
- blood sugar level compared to control group (second group) (c57BL db/db male mice [1]; 0.3% in the feed, after 9-week old): significantly lower values at every measuring times after 9-week old
- OGTT blood sugar levels compared to second group (c57BL db/db male mice [2]; 0.1% in the feed, every measuring point): significantly lower than the levels of the second group at every measuring points
- OGTT blood sugar level (c57BL db/db male mice [2]; 0.1% in the feed, 60 minutes): 703 mg/dL
- OGTT blood sugar level (c57BL db/db male mice [2]; 0.1% in the feed, 120 minutes): 558 mg/dL
- OGTT blood sugar level (c57BL db/db male mice [2]; 0.1% in the feed, time 0): 497 mg/dL
- OGTT blood sugar level (c57BL db/db male mice [2]; 0.3% in the feed, 60 minutes): almost the same 60-munites value as that of the third group
- OGTT blood sugar level (c57BL db/db male mice [2]; 0.3% in the feed, 120 minutes): 440 mg/dL
- OGTT blood sugar level (c57BL db/db male mice [2]; 0.3% in the feed, time 0): 282 mg/dL
- onset of positive urinary sugar (c57BL db/db male mice [3]; 0.1% in the feed): a delay in giving a positive result was observed
- urinary sugar, number of mice graded + (c57BL db/db male mice [3]; [7]): 1
- urinary sugar, number of mice graded ++ (c57BL db/db male mice [3]; [7]): 0
- urinary sugar, number of mice graded +++ (c57BL db/db male mice [3]; [7]): 4
- urinary sugar, number of mice graded ± (c57BL db/db male mice [3]; [7]): 1
- urinary sugar, number of mice graded − (c57BL db/db male mice [3]; [7]): 2
- urinary sugar, Positive ratio (c57BL db/db male mice [3]; [7]): 63%
- urinary sugar, number of mice graded + (c57BL db/db male mice [3]; [8]): 0
- urinary sugar, number of mice graded ++ (c57BL db/db male mice [3]; [8]): 2
- urinary sugar, number of mice graded +++ (c57BL db/db male mice [3]; [8]): 2
- urinary sugar, number of mice graded ± (c57BL db/db male mice [3]; [8]): 2
- urinary sugar, number of mice graded − (c57BL db/db male mice [3]; [8]): 1
- urinary sugar, Positive ratio (c57BL db/db male mice [3]; [8]): 57%
- urinary sugar, number of mice graded + (c57BL db/db male mice [3]; [9]): 1
- urinary sugar, number of mice graded ++ (c57BL db/db male mice [3]; [9]): 0
- urinary sugar, number of mice graded +++ (c57BL db/db male mice [3]; [9]): 7
- urinary sugar, number of mice graded ± (c57BL db/db male mice [3]; [9]): 0
- urinary sugar, number of mice graded − (c57BL db/db male mice [3]; [9]): 1
- urinary sugar, Positive ratio (c57BL db/db male mice [3]; [9]): 89%
- urinary sugar, number of mice graded + (c57BL db/db male mice [3]; [10]): 0
- urinary sugar, number of mice graded ++ (c57BL db/db male mice [3]; [10]): 0
- urinary sugar, number of mice graded +++ (c57BL db/db male mice [3]; [10]): 9
- urinary sugar, number of mice graded ± (c57BL db/db male mice [3]; [10]): 0
- urinary sugar, number of mice graded − (c57BL db/db male mice [3]; [10]): 0
- urinary sugar, Positive ratio (c57BL db/db male mice [3]; [10]): 100%
- urinary sugar, number of mice graded + (c57BL db/db male mice [3]; [11]): 0
- urinary sugar, number of mice graded ++ (c57BL db/db male mice [3]; [11]): 1
- urinary sugar, number of mice graded +++ (c57BL db/db male mice [3]; [11]): 8
- urinary sugar, number of mice graded ± (c57BL db/db male mice [3]; [11]): 0
- urinary sugar, number of mice graded − (c57BL db/db male mice [3]; [11]): 0
- urinary sugar, Positive ratio (c57BL db/db male mice [3]; [11]): 100%
- urinary sugar, number of mice graded + (c57BL db/db male mice [3]; [12]): 1
- urinary sugar, number of mice graded ++ (c57BL db/db male mice [3]; [12]): 0
- urinary sugar, number of mice graded +++ (c57BL db/db male mice [3]; [12]): 8
- urinary sugar, number of mice graded ± (c57BL db/db male mice [3]; [12]): 0
- urinary sugar, number of mice graded − (c57BL db/db male mice [3]; [12]): 0
- urinary sugar, Positive ratio (c57BL db/db male mice [3]; [12]): 100%
- positive ratio of urinary sugar, range over the test period (c57BL db/db male mice [3]; [6]): 14 to 70%
- positive degrees of urinary sugar compared to control group (second group) (c57BL db/db male mice [3]; 0.3% in the feed, almost a half of the mice + (150 mg/dl) or ++ (500 mg/dl)): lower than the results of the control group
- urinary sugar, number of mice graded + (c57BL db/db male mice [3]; [13]): 0
- urinary sugar, number of mice graded ++ (c57BL db/db male mice [3]; [13]): 0
- urinary sugar, number of mice graded +++ (c57BL db/db male mice [3]; [13]): 1
- urinary sugar, number of mice graded ± (c57BL db/db male mice [3]; [13]): 0
- urinary sugar, number of mice graded − (c57BL db/db male mice [3]; [13]): 6
- urinary sugar, Positive ratio (c57BL db/db male mice [3]; [13]): 14%
- urinary sugar, number of mice graded + (c57BL db/db male mice [3]; [14]): 0
- urinary sugar, number of mice graded ++ (c57BL db/db male mice [3]; [14]): 1
- urinary sugar, number of mice graded +++ (c57BL db/db male mice [3]; [14]): 0
- urinary sugar, number of mice graded ± (c57BL db/db male mice [3]; [14]): 0
- urinary sugar, number of mice graded − (c57BL db/db male mice [3]; [14]): 4
- urinary sugar, Positive ratio (c57BL db/db male mice [3]; [14]): 20%
- urinary sugar, number of mice graded + (c57BL db/db male mice [3]; [15]): 0
- urinary sugar, number of mice graded ++ (c57BL db/db male mice [3]; [15]): 2
- urinary sugar, number of mice graded +++ (c57BL db/db male mice [3]; [15]): 3
- urinary sugar, number of mice graded ± (c57BL db/db male mice [3]; [15]): 1
- urinary sugar, number of mice graded − (c57BL db/db male mice [3]; [15]): 2
- urinary sugar, Positive ratio (c57BL db/db male mice [3]; [15]): 63%
- urinary sugar, number of mice graded + (c57BL db/db male mice [3]; [16]): 1
- urinary sugar, number of mice graded ++ (c57BL db/db male mice [3]; [16]): 2
- urinary sugar, number of mice graded +++ (c57BL db/db male mice [3]; [16]): 2
- urinary sugar, number of mice graded ± (c57BL db/db male mice [3]; [16]): 0
- urinary sugar, number of mice graded − (c57BL db/db male mice [3]; [16]): 5
- urinary sugar, Positive ratio (c57BL db/db male mice [3]; [16]): 50%
- urinary sugar, number of mice graded + (c57BL db/db male mice [3]; [17]): 1
- urinary sugar, number of mice graded ++ (c57BL db/db male mice [3]; [17]): 1
- urinary sugar, number of mice graded +++ (c57BL db/db male mice [3]; [17]): 2
- urinary sugar, number of mice graded ± (c57BL db/db male mice [3]; [17]): 1
- urinary sugar, number of mice graded − (c57BL db/db male mice [3]; [17]): 4
- urinary sugar, Positive ratio (c57BL db/db male mice [3]; [17]): 44%
- urinary sugar, number of mice graded + (c57BL db/db male mice [3]; [18]): 3
- urinary sugar, number of mice graded ++ (c57BL db/db male mice [3]; [18]): 1
- urinary sugar, number of mice graded +++ (c57BL db/db male mice [3]; [18]): 3
- urinary sugar, number of mice graded ± (c57BL db/db male mice [3]; [18]): 2
- urinary sugar, number of mice graded − (c57BL db/db male mice [3]; [18]): 1
- urinary sugar, Positive ratio (c57BL db/db male mice [3]; [18]): 70%
- body weight compared to control group (second group) (Body weight): significantly higher
- autopsy of brain, heart, lungs, livers, pancreas, spleen, kidneys, adrenals (c57BL db/db male mice [4]; 0.1% and 0.3% in the feed, some mice with fat liver, as in the control db/db group): no particular abnormality was observed
- weight of the testis (absolute weight) as % of that of the healthy mice (first group) (c57BL db/db male mice [4]; 0.3% in the feed, untreated diabetic mice 50 to 60%): 85%
- general conditions during the experimental period (c57BL db/db male mice [5]): no abnormal findings such as diarrhea was observed
